Assay results taken from article PMC8926291 (Chemical Science, 2022).
Starred links: 1 amine or outer side, 2 acyl side, 3 side chain; linkers in the order of their positions; H or OH if unused. Positions of bridges follow the written chain, without caps; N, C: chain ends. Residues, ends and D or L forms follow the SMILES beside them. *: point of attachment. C18 diacid = O=C(O)CCCCCCCCCCCCCCCCC(=O)*; γGlu = O=C(O)[C@H](CCC(=O)[*:2])N[*:1]; AEEA = NCCOCCOCC(=O)O

Legend:
[1] = pharmacokinetic study in rats, i.v. dosing; type: in vivo; conditions: male, Sprague-Dawley, rat, plasma, iv, 2 nmol/kg, mean
[2] = in vitro plasma stability in human plasma; conditions: 37 °C, over 5 h
hGIP-R ECD [3] = target: T1, hGIP-R ECD (Homo sapiens, UniProt P48546); experiment: multi-concentration BLI binding of purified peptides to hGIP-R ECD
T1 sequence (P48546 22-138): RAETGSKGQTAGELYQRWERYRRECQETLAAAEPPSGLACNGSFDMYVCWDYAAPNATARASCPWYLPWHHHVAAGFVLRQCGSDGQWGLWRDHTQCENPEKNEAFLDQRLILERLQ

hGIP-R ECD [4] = target: T1, hGIP-R ECD; experiment: single-concentration BLI binding of crude peptides to biotinylated hGIP-R ECD
[5] = cited from earlier work

| Compound | In vitro plasma stability (in words) [2] | binding to hGIP-R ECD (in words) (hGIP-R ECD [3]) | also measured |
| --- | --- | --- | --- |
| CC(C)C[C@@H]1NC(=O)[C@H](CC(=O)O)NC(=O)[C@H](Cc2ccccc2)NC(=O)[C@H](Cc2c[nH]cn2)NC(=O)[C@H]([C@@H](C)O)NC(=O)[C@H](Cc2ccccc2)NC(=O)[C@@H](NC(=O)[C@H](C)NC(=O)COCCOCCNC(=O)COCCOCCNC(=O)CC[C@H](NC(=O)CCCCCCCCCCCCCCCCC(=O)O)C(=O)O)CSSC[C@@H](C(=O)O)NC(=O)[C@H](Cc2ccccc2)NC(=O)[C@@H]2CCCN2C(=O)[C@H](Cc2c[nH]c3ccccc23)NC(=O)[C@H](CC(C)C)NC1=O [B_1275.6] ({C18 diacid-γGlu-AEEA-AEEA}-ACFTHFDLLWPFC-OH; disulfide 2-13) | no decrease in plasma stability |  | half-life ([1]; t½ (h)): 4.2 h |
| CSCC[C@H](NC(=O)COCCOCCNC(=O)COCCOCCNC(=O)CC[C@H](NC(=O)CCCCCCCCCCCCCCCCC(=O)O)C(=O)O)C(=O)N[C@H]1CSSC[C@@H](C(N)=O)NC(=O)[C@H](Cc2ccccc2)NC(=O)[C@@H]2CCCN2C(=O)[C@H](Cc2c[nH]c3ccccc23)NC(=O)[C@H](CC(C)C)NC(=O)[C@H](CCSC)NC(=O)[C@H](Cc2c[nH]cn2)NC(=O)[C@H](Cc2ccccc2)NC(=O)[C@H](Cc2c[nH]cn2)NC(=O)[C@H]([C@@H](C)O)NC(=O)[C@H](Cc2ccccc2)NC1=O [B_1275.3] ({C18 diacid-γGlu-AEEA-AEEA}-MCFTHFHMLWPFC-NH2; disulfide 2-13) | no decrease in plasma stability |  |  |
| CC(=O)N[C@@H](C)C(=O)N[C@H]1CSSC[C@@H](C(=O)O)NC(=O)[C@H](Cc2ccccc2)NC(=O)[C@@H]2CCCN2C(=O)[C@H](Cc2c[nH]c3ccccc23)NC(=O)[C@H](CC(C)C)NC(=O)[C@H](CC(C)C)NC(=O)[C@H](CC(=O)O)NC(=O)[C@H](Cc2ccccc2)NC(=O)[C@H](Cc2c[nH]cn2)NC(=O)[C@H]([C@@H](C)O)NC(=O)[C@H](Cc2ccccc2)NC1=O [B_1275.5] (Ac-ACFTHFDLLWPFC-OH; disulfide 2-13) | no decrease in plasma stability |  | half-life ([1]; t½ (min)): 0.03 h |
| Ac-MSFIHWDMLWPFSGSGSDYKDDDDK-NH2 [B_5.2] |  | None of the linear variants |  |
| Ac-MSFRFFSLLWPFSGSGSDYKDDDDK-NH2 [B_68.2] |  | None of the linear variants |  |
| CC(=O)N[C@@H](C)C(=O)N[C@H]1CSSC[C@@H](C(=O)NCC(=O)N[C@@H](CO)C(=O)NCC(=O)N[C@@H](CO)C(=O)N[C@@H](CC(=O)O)C(=O)N[C@@H](Cc2ccc(O)cc2)C(=O)N[C@@H](CCCCN)C(=O)N[C@@H](CC(=O)O)C(=O)N[C@@H](CC(=O)O)C(=O)N[C@@H](CC(=O)O)C(=O)N[C@@H](CC(=O)O)C(=O)N[C@@H](CCCCN)C(N)=O)NC(=O)[C@H](Cc2ccccc2)NC(=O)[C@@H]2CCCN2C(=O)[C@H](Cc2c[nH]c3ccccc23)NC(=O)[C@H](CC(C)C)NC(=O)[C@H](CC(C)C)NC(=O)[C@H](CC(=O)O)NC(=O)[C@H](Cc2ccccc2)NC(=O)[C@H](Cc2c[nH]cn2)NC(=O)[C@H]([C@@H](C)O)NC(=O)[C@H](Cc2ccccc2)NC1=O [B_1275.4] (Ac-ACFTHFDLLWPFCGSGSDYKDDDDK-NH2; disulfide 2-13) | no decrease in plasma stability |  | half-life ([1]; t½ (min)): 0.0583 h |
| Ac-MSFTHFHMLWPFSGSGSDYKDDDDK-NH2 [B_1275.2] |  | None of the linear variants |  |
| Ac-MSFQYFHILWPFSGSGSDYKDDDDK-NH2 [B_3.2] |  | None of the linear variants |  |
| CSCC[C@H](NC(C)=O)C(=O)N[C@H]1CSSC[C@@H](C(=O)NCC(=O)N[C@@H](CO)C(=O)NCC(=O)N[C@@H](CO)C(=O)N[C@@H](CC(=O)O)C(=O)N[C@@H](Cc2ccc(O)cc2)C(=O)N[C@@H](CCCCN)C(=O)N[C@@H](CC(=O)O)C(=O)N[C@@H](CC(=O)O)C(=O)N[C@@H](CC(=O)O)C(=O)N[C@@H](CC(=O)O)C(=O)N[C@@H](CCCCN)C(N)=O)NC(=O)[C@H](Cc2ccccc2)NC(=O)[C@@H]2CCCN2C(=O)[C@H](Cc2c[nH]c3ccccc23)NC(=O)[C@H](CC(C)C)NC(=O)[C@H](CC(C)C)NC(=O)[C@H](CO)NC(=O)[C@H](Cc2ccccc2)NC(=O)[C@H](Cc2ccccc2)NC(=O)[C@H](CCCNC(=N)N)NC(=O)[C@H](Cc2ccccc2)NC1=O [B_68] (Ac-MCFRFFSLLWPFCGSGSDYKDDDDK-NH2; disulfide 2-13) |  |  | binding to hGIP-R ECD (in words) (hGIP-R ECD [4]): did not reveal any binding |
| CSCC[C@H](NC(=O)COCCOCCNC(=O)COCCOCCNC(=O)CC[C@H](NC(=O)CCCCCCCCCCCCCCCCC(=O)O)C(=O)O)C(=O)N[C@H]1CSSC[C@@H](C(=O)NCC(=O)N[C@@H](CO)C(=O)NCC(=O)N[C@@H](CO)C(=O)N[C@@H](CC(=O)O)C(=O)N[C@@H](Cc2ccc(O)cc2)C(=O)N[C@@H](CCCCN)C(=O)N[C@@H](CC(=O)O)C(=O)N[C@@H](CC(=O)O)C(=O)N[C@@H](CC(=O)O)C(=O)N[C@@H](CC(=O)O)C(=O)N[C@@H](CCCCN)C(N)=O)NC(=O)[C@H](Cc2ccccc2)NC(=O)[C@@H]2CCCN2C(=O)[C@H](Cc2c[nH]c3ccccc23)NC(=O)[C@H](CC(C)C)NC(=O)[C@H](CCSC)NC(=O)[C@H](Cc2c[nH]cn2)NC(=O)[C@H](Cc2ccccc2)NC(=O)[C@H](Cc2c[nH]cn2)NC(=O)[C@H]([C@@H](C)O)NC(=O)[C@H](Cc2ccccc2)NC1=O [B_1275.1] ({C18 diacid-γGlu-AEEA-AEEA}-MCFTHFHMLWPFCGSGSDYKDDDDK-NH2; disulfide 2-13) |  |  | half-life ([1]; t½ (h)): 10.7 h |
| semaglutide |  |  | t1/2 in rats [5]: 7 h |
| CC(=O)N[C@@H](C)C(=O)N[C@H]1CSSC[C@@H](C(=O)NCC(=O)N[C@@H](CO)C(=O)NCC(=O)N[C@@H](CO)C(=O)N[C@@H](CC(=O)O)C(=O)N[C@@H](Cc2ccc(O)cc2)C(=O)N[C@@H](CCCCN)C(=O)N[C@@H](CC(=O)O)C(=O)N[C@@H](CC(=O)O)C(=O)N[C@@H](CC(=O)O)C(=O)N[C@@H](CC(=O)O)C(=O)N[C@@H](CCCCN)C(N)=O)NC(=O)[C@@H]2CCCN2C(=O)[C@@H]2CCCN2C(=O)[C@H](Cc2c[nH]c3ccccc23)NC(=O)[C@H](CC(C)C)NC(=O)[C@H](CC(C)C)NC(=O)[C@H](Cc2c[nH]cn2)NC(=O)[C@H](Cc2ccccc2)NC(=O)[C@H](Cc2c[nH]cn2)NC(=O)[C@H]([C@@H](C)O)NC(=O)[C@H](Cc2ccccc2)NC1=O [B_1275.10] (Ac-ACFTHFHLLWPPCGSGSDYKDDDDK-NH2; disulfide 2-13) |  | did not show any binding |  |
